# Measured values: paper PMC11480411, “Mucosal sugars delineate pyrazine vs pyrazinone autoinducer signaling in Klebsiella oxytoca” (Nature Communications, 2024)
# Values joined by “and” are separate entries in the source; they are usually repeats but may differ in a detail not shown here. Equal entries are not always repeated.
# How the values were obtained:
# ∆pyr K. oxytoca = test: RNA-seq of compound-supplemented ∆pyr K. oxytoca; type: cell-based, Klebsiella oxytoca ATCC 8724; details: 10 µM
# Description: A ∆pyr K. oxytoca glycerol stock was streaked onto an LB-Agar plate supplemented with spectinomycin (50 µg/mL) and incubated aerobically at 30°C for 24 h in a stationary incubator. Single colonies were grown for 24 h aerobically in 5 mL of M9 minimal medium supplemented with 5 g/L casamino acids and 0.4% D-galactose at 30 °C and 250 rpm. Each ∆pyr K. oxytoca overnight culture was diluted 1:1000 into fresh medium (5 mL) and incubated aerobically at 30 °C and 250 rpm to mid-exponential growth (OD600 = 0.8). These conditions abrogated both detectable pyrazine and pyrazinone production. At this point, 10 µM of compound in DMSO, were added to the cultures; an equal volume of DMSO was added to cultures without compound as a solvent vehicle control. The cultures were incubated under aerobic conditions with the compounds for one hour at 30 °C and at 250 rpm. After incubation, the cultures were centrifuged, the supernatants were decanted, and the cell pellets were quickly resuspended in 5 mL of Bacterial RNAProtect (Qiagen). The samples were centrifuged again, and the pellets were frozen on dry ice and stored at −80 °C until RNA extraction. The processed cell pellets were thawed on ice and resuspended in 200 µL of lysis buffer (10 mM Tris, 1 mM EDTA, 5 mg/mL lysozyme, 12.5 µg/mL proteinase K [pH 8.0]) and incubated at room temperature for 10 min. The RNA was extracted via the Qiagen RNeasy Mini kit, treated with TURBO DNase in a total volume of 100 µL at room temperature for 30 min, and extracted again using an RNeasy Mini kit. RNA-seq analysis was conducted by the Yale Center for Genome Analysis. Sequences were aligned to the K. oxytoca ATCC 8724 genome (NC_016612.1). Differential expression analysis was performed through DESeq2 and pathway enrichment analysis was performed through the Funage-Pro web-based platform.
# HRH2 = target: T1, HRH2 (Homo sapiens, UniProt P25021); test: PRESTO-Tango GPCR screen and dose-response; type: cell-based; details: for HRH2 dose-response raw reporter signal (Fig. 5b source data): replicate wells
# T1 construct: expressed in transfected cells; host or cells: HTLA cells (HEK293 line stably expressing β-arrestin-TEV and tTA-Luciferase)
# Description: (§1) The PRESTO-Tango analyses were performed as previously published. Briefly, HTLA cells, a HEK293 cell line that stably expresses β-arrestin-TEV and tTA-Luciferase (a kind gift from Gilad Barnea, Brown University), were plated in 96-well tissue culture plates (Eppendorf) in DMEM containing 10% FBS and 1% Penicillin/Streptomycin. One day after plating (after reaching approximately 90% confluence), 200 ng per well GPCR-Tango plasmids[37] in 20 μL DMEM were individually mixed with 400 ng polyethylenimine (Polysciences) in an equal volume of DMEM and incubated for 20 min at room temperature before adding the transfection mixture to the HTLA cells. 16-24 h after transfection, medium was replaced with 180 μL fresh DMEM containing 1% Penicillin/Streptomycin and 10 mM HEPES and 20 μL of 3 or 3-Homo to reach a final concentration of 100 μM. Supernatants were aspirated 20 h after stimulation and 50 μl per well of Bright-Glo solution (Promega) diluted 20-fold with PBS containing 20 mM HEPES was added into each well. After 15 min incubation at room temperature, luminescence was quantified using a Spectramax i3x microplate reader (Molecular Devices). Activation fold for each sample was calculated by dividing relative luminescence units (RLU) for each condition by RLUs from PBS control. Dose response curves of each chemical were performed in a similar way with varying the ligand concentration from 10^−4 M to 10^−15 M.
# [1] = target: T2, histamine receptor H4 (HRH4) (Homo sapiens, UniProt Q9H3N8); test: PRESTO-Tango GPCR screen and dose-response; type: cell-based; details: for HRH4 dose-response raw reporter signal (Fig. 5b source data): replicate wells
# T2 construct: expressed in transfected cells; host or cells: HTLA cells (HEK293 line stably expressing β-arrestin-TEV and tTA-Luciferase)
# Description: as §1
# HRH3 = target: T3, HRH3 (Homo sapiens, UniProt Q9Y5N1); test: PRESTO-Tango GPCR screen and dose-response; type: cell-based; details: for HRH3 dose-response raw reporter signal (Fig. 5b source data): replicate wells
# T3 construct: expressed in transfected cells; host or cells: HTLA cells (HEK293 line stably expressing β-arrestin-TEV and tTA-Luciferase)
# Description: as §1
# HRH1 = target: T4, HRH1 (Homo sapiens, UniProt P35367); test: PRESTO-Tango GPCR screen and dose-response; type: cell-based; details: for HRH1 dose-response raw reporter signal (Fig. 5b source data): replicate wells
# T4 construct: expressed in transfected cells; host or cells: HTLA cells (HEK293 line stably expressing β-arrestin-TEV and tTA-Luciferase)
# Description: as §1
# T3 sequence (Q9Y5N1 whole entry): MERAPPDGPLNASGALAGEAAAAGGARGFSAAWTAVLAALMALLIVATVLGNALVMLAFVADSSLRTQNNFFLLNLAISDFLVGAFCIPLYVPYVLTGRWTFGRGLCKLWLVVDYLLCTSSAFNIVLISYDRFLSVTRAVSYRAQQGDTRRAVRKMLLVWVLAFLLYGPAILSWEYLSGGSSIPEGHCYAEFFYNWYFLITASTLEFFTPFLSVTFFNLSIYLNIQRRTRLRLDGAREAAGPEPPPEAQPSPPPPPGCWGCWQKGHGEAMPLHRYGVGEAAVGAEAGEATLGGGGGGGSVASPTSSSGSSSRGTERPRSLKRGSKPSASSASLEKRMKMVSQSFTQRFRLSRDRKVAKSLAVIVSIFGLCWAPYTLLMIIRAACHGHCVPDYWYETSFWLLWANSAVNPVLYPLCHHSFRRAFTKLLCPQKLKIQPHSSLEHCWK
# T4 sequence (P35367 whole entry): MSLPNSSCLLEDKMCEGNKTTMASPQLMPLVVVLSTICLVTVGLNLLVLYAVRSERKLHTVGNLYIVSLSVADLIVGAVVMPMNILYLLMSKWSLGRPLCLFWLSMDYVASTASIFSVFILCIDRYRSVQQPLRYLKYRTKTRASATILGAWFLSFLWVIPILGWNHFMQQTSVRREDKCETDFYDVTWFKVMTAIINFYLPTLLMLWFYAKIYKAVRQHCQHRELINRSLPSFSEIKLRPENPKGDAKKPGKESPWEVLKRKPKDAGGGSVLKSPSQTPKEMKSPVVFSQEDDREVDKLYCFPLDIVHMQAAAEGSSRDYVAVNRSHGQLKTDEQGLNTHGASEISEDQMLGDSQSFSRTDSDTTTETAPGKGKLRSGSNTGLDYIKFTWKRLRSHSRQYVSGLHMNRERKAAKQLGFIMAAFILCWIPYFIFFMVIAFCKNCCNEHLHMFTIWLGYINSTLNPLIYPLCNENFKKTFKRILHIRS
# T1 sequence (P25021 whole entry): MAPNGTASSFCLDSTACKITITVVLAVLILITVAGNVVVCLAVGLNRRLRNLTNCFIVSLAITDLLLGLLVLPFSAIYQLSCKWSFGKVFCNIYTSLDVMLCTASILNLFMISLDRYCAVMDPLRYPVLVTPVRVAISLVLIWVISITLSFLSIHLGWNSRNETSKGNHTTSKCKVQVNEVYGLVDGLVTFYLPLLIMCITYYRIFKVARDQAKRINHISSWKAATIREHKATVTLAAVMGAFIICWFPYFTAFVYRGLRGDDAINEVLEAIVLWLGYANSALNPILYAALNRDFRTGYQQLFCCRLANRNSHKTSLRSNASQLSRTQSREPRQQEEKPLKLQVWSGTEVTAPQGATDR
# T2 sequence (Q9H3N8 whole entry): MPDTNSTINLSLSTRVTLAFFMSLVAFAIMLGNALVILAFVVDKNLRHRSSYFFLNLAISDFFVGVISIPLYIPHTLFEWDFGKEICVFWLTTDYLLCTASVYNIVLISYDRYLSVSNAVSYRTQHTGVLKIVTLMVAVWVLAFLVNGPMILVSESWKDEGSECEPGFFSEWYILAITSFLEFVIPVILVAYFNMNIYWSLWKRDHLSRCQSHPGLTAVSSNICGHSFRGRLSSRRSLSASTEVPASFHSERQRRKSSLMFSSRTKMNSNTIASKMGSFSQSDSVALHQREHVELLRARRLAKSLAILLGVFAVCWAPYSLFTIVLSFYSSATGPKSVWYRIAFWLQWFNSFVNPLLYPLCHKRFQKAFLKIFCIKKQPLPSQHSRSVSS
structure (smiles),measurement,setting,value
O=C(O)CCc1nc(Cc2ccc(O)cc2)c(CCC(=O)O)nc1Cc1ccc(O)cc1 [compound 6],number of differentially regulated genes,"∆pyr K. oxytoca; one hour, vs DMSO, Padj < 0.05, abs(log2FC) > 1",201 genes
same,effect on enterobactin BGC transcription,"∆pyr K. oxytoca; vs DMSO control, RNA-seq",increased enterobactin transcription levels
same,HRH2 dose-response raw reporter signal (Fig. 5b source data),HRH2; Log(10)Conc (M) -4,68 and 65 and 32
same,HRH2 dose-response raw reporter signal (Fig. 5b source data),HRH2; Log(10)Conc (M) -5,50 and 41 and 77
same,HRH2 dose-response raw reporter signal (Fig. 5b source data),HRH2; Log(10)Conc (M) -6,59 and 62 and 44
same,HRH2 dose-response raw reporter signal (Fig. 5b source data),HRH2; Log(10)Conc (M) -7,27 and 50 and 35
same,HRH2 dose-response raw reporter signal (Fig. 5b source data),HRH2; Log(10)Conc (M) -8,65 and 80 and 47
same,HRH2 dose-response raw reporter signal (Fig. 5b source data),HRH2; Log(10)Conc (M) -9,38 and 97 and 71
same,HRH2 dose-response raw reporter signal (Fig. 5b source data),HRH2; Log(10)Conc (M) -10,50 (2×) and 62
same,HRH2 dose-response raw reporter signal (Fig. 5b source data),HRH2; Log(10)Conc (M) -11,56 and 27 and 53
same,HRH2 dose-response raw reporter signal (Fig. 5b source data),HRH2; Log(10)Conc (M) -12,53 and 35 and 24
same,HRH2 dose-response raw reporter signal (Fig. 5b source data),HRH2; Log(10)Conc (M) -13,59 and 53 and 35
same,HRH2 dose-response raw reporter signal (Fig. 5b source data),HRH2; Log(10)Conc (M) -14,71 and 53 (2×)
same,HRH2 dose-response raw reporter signal (Fig. 5b source data),HRH2; Log(10)Conc (M) -15,29 and 15 and 32
same,activity towards HRH2,HRH2; PRESTO-Tango dose-response,no activity
same,HRH4 dose-response raw reporter signal (Fig. 5b source data),[1]; Log(10)Conc (M) -5,295 and 312
same,HRH4 dose-response raw reporter signal (Fig. 5b source data),[1]; Log(10)Conc (M) -6,348 and 448
same,HRH4 dose-response raw reporter signal (Fig. 5b source data),[1]; Log(10)Conc (M) -7,304 and 348
same,HRH4 dose-response raw reporter signal (Fig. 5b source data),[1]; Log(10)Conc (M) -8,271 and 366
same,HRH4 dose-response raw reporter signal (Fig. 5b source data),[1]; Log(10)Conc (M) -9,318 and 324
same,HRH4 dose-response raw reporter signal (Fig. 5b source data),[1]; Log(10)Conc (M) -10,271 and 230
same,HRH4 dose-response raw reporter signal (Fig. 5b source data),[1]; Log(10)Conc (M) -11,342 and 265
same,HRH4 dose-response raw reporter signal (Fig. 5b source data),[1]; Log(10)Conc (M) -12,298 and 248
same,HRH4 dose-response raw reporter signal (Fig. 5b source data),[1]; Log(10)Conc (M) -13,318 and 271
same,HRH4 dose-response raw reporter signal (Fig. 5b source data),[1]; Log(10)Conc (M) -14,374 and 307
same,HRH4 dose-response raw reporter signal (Fig. 5b source data),[1]; Log(10)Conc (M) -15,242 and 254
same,activity towards HRH4,[1]; PRESTO-Tango dose-response,no activity
same,HRH3 dose-response raw reporter signal (Fig. 5b source data),HRH3; Log(10)Conc (M) -4,162 and 59 and 171
same,HRH3 dose-response raw reporter signal (Fig. 5b source data),HRH3; Log(10)Conc (M) -5,94 and 85 and 156
same,HRH3 dose-response raw reporter signal (Fig. 5b source data),HRH3; Log(10)Conc (M) -6,136 and 91 and 133
same,HRH3 dose-response raw reporter signal (Fig. 5b source data),HRH3; Log(10)Conc (M) -7,124 and 91 and 106
same,HRH3 dose-response raw reporter signal (Fig. 5b source data),HRH3; Log(10)Conc (M) -8,133 and 85 and 109
same,HRH3 dose-response raw reporter signal (Fig. 5b source data),HRH3; Log(10)Conc (M) -9,165 and 142 and 209
same,HRH3 dose-response raw reporter signal (Fig. 5b source data),HRH3; Log(10)Conc (M) -10,200 and 100 and 109
same,HRH3 dose-response raw reporter signal (Fig. 5b source data),HRH3; Log(10)Conc (M) -11,133 and 100 and 147
same,HRH3 dose-response raw reporter signal (Fig. 5b source data),HRH3; Log(10)Conc (M) -12,115 (2×) and 142
same,HRH3 dose-response raw reporter signal (Fig. 5b source data),HRH3; Log(10)Conc (M) -13,139 and 91 and 133
same,HRH3 dose-response raw reporter signal (Fig. 5b source data),HRH3; Log(10)Conc (M) -14,127 and 83 and 121
same,HRH3 dose-response raw reporter signal (Fig. 5b source data),HRH3; Log(10)Conc (M) -15,112 and 91 and 62
same,activity towards HRH3,HRH3; PRESTO-Tango dose-response,no activity
same,HRH1 dose-response raw reporter signal (Fig. 5b source data),HRH1; Log(10)Conc (M) -4,49886 and 44465
same,HRH1 dose-response raw reporter signal (Fig. 5b source data),HRH1; Log(10)Conc (M) -5,46746 and 44008
same,HRH1 dose-response raw reporter signal (Fig. 5b source data),HRH1; Log(10)Conc (M) -6,46048 and 46004
same,HRH1 dose-response raw reporter signal (Fig. 5b source data),HRH1; Log(10)Conc (M) -7,45284 and 44521
same,HRH1 dose-response raw reporter signal (Fig. 5b source data),HRH1; Log(10)Conc (M) -8,43675 and 43707
same,HRH1 dose-response raw reporter signal (Fig. 5b source data),HRH1; Log(10)Conc (M) -9,43412 and 43896
same,HRH1 dose-response raw reporter signal (Fig. 5b source data),HRH1; Log(10)Conc (M) -10,42790 and 43339
same,HRH1 dose-response raw reporter signal (Fig. 5b source data),HRH1; Log(10)Conc (M) -11,45349 and 45281
same,HRH1 dose-response raw reporter signal (Fig. 5b source data),HRH1; Log(10)Conc (M) -12,45812 and 46139
same,HRH1 dose-response raw reporter signal (Fig. 5b source data),HRH1; Log(10)Conc (M) -13,46567 and 45803
same,HRH1 dose-response raw reporter signal (Fig. 5b source data),HRH1; Log(10)Conc (M) -14,45579 and 46637
same,HRH1 dose-response raw reporter signal (Fig. 5b source data),HRH1; Log(10)Conc (M) -15,40874 and 41360
same,activity towards HRH1,HRH1; PRESTO-Tango dose-response,no activity
